{"source": "patent US20150307938A1", "about": "“METHOD TO IDENTIFY A NOVEL CLASS OF IMMUNOLOGIC ADJUVANTS” (Lancell, L.L.C., priority 2011, published 2015)", "tested_on": "skin", "experiment": "Affymetrix microarray of skin, DBP-4 hr and analogs vs. untreated; gene selection by log-2 fold change, Wilcoxon, Kendall tau (Tables 8, 9)", "assay_type": "in vivo, mouse", "settings": "for Wilcoxon: DBP-4 hr vs. untreated; for Kendall: Kendall tau, expression vs. outcome", "key": {"[1]": {"settings": "gene #535 Tmem93 NM_001168470_at"}, "[2]": {"settings": "gene #536 Nfkb2 NM_001177369_at"}, "[3]": {"settings": "gene #537 Nfkb2 NM_001177370_at"}, "[4]": {"settings": "gene #538 Zfp518b NM_001177902_at"}, "[5]": {"settings": "gene #541 Meis1 NM_001193271_at"}, "[6]": {"settings": "gene #542 Bcar1 NM_001198839_at"}, "[7]": {"settings": "gene #543 Dcaf11 NM_001199009_at"}, "[8]": {"settings": "gene #544 Rabgef1 NM_001199059_at"}, "[9]": {"settings": "gene #545 4931408A02Rik NM_001199210_at"}}}
{"compound": "CCCCOC(=O)c1ccccc1C(=O)OCCCC", "note": "[DBP, dibutylphthalate]", "values": [{"measurement": "Log2 Expression Level", "setting": "gene #56 of Table 8", "value": 10.17}, {"measurement": "Log2 Expression Level", "setting": "gene #57 of Table 8", "value": 8.92}, {"measurement": "Log2 Expression Level", "setting": "gene #58 of Table 8", "value": 9.48}, {"measurement": "Log2 Expression Level", "setting": "gene #59 of Table 8", "value": 8.72}, {"measurement": "Log2 Expression Level", "setting": "gene #60 of Table 8", "value": 7.73}, {"measurement": "Log2 Expression Level", "setting": "gene #61 of Table 8", "value": 12.15}, {"measurement": "Log2 Expression Level", "setting": "gene #62 of Table 8", "value": 8.52}, {"measurement": "Log2 Expression Level", "setting": "gene #63 of Table 8", "value": 11.36}, {"measurement": "Log2 Expression Level", "setting": "gene #64 of Table 8", "value": 11.47}, {"measurement": "Log2 Expression Level", "setting": "gene #65 of Table 8", "value": 7.88}, {"measurement": "Log2 Expression Level", "setting": "gene #66 of Table 8", "value": 8.85}, {"measurement": "Log2 Expression Level", "setting": "gene #67 of Table 8", "value": 5.48}, {"measurement": "Log2 Expression Level", "setting": "gene #68 of Table 8", "value": 10.24}, {"measurement": "Log2 Expression Level", "setting": "gene #69 of Table 8", "value": 6.54}, {"measurement": "Log2 Expression Level", "setting": "gene #70 of Table 8", "value": 5.48}, {"measurement": "Log2 Expression Level", "setting": "gene #71 of Table 8", "value": 8.51}, {"measurement": "Log2 Expression Level", "setting": "gene #72 of Table 8", "value": 9.12}, {"measurement": "Log2 Expression Level", "setting": "gene #73 of Table 8", "value": 7.67}, {"measurement": "Log2 Expression Level", "setting": "gene #74 of Table 8", "value": 7.70}, {"measurement": "Log2 Expression Level", "setting": "gene #75 of Table 8", "value": 9.61}, {"measurement": "Log2 Expression Level", "setting": "gene #76 of Table 8", "value": 5.46}, {"measurement": "Log2 Expression Level", "setting": "gene #77 of Table 8", "value": 9.71}, {"measurement": "Log2 Expression Level", "setting": "gene #78 of Table 8", "value": 10.76}, {"measurement": "Log2 Expression Level", "setting": "gene #79 of Table 8", "value": 8.09}, {"measurement": "Log2 Expression Level", "setting": "gene #80 of Table 8", "value": 13.23}, {"measurement": "Log2 Expression Level", "setting": "gene #81 of Table 8", "value": 6.69}, {"measurement": "Log2 Expression Level", "setting": "gene #82 of Table 8", "value": 6.28}, {"measurement": "Log2 Expression Level", "setting": "gene #83 of Table 8", "value": 7.59}, {"measurement": "Log2 Expression Level", "setting": "gene #84 of Table 8", "value": 8.32}, {"measurement": "Log2 Expression Level", "setting": "gene #85 of Table 8", "value": 7.84}, {"measurement": "Log2 Expression Level", "setting": "gene #86 of Table 8", "value": 7.16}, {"measurement": "Log2 Expression Level", "setting": "gene #87 of Table 8", "value": 9.56}, {"measurement": "Log2 Expression Level", "setting": "gene #88 of Table 8", "value": 8.67}, {"measurement": "Log2 Expression Level", "setting": "gene #89 of Table 8", "value": 6.04}, {"measurement": "Log2 Expression Level", "setting": "gene #90 of Table 8", "value": 10.84}, {"measurement": "Log2 Expression Level", "setting": "gene #91 of Table 8", "value": 8.25}, {"measurement": "Log2 Expression Level", "setting": "gene #92 of Table 8", "value": 7.56}, {"measurement": "Log2 Expression Level", "setting": "gene #93 of Table 8", "value": 9.98}, {"measurement": "Log2 Expression Level", "setting": "gene #94 of Table 8", "value": 8.85}, {"measurement": "Log2 Expression Level", "setting": "gene #95 of Table 8", "value": 7.22}, {"measurement": "Log2 Expression Level", "setting": "gene #96 of Table 8", "value": 8.79}, {"measurement": "Log2 Expression Level", "setting": "gene #97 of Table 8", "value": 6.04}, {"measurement": "Log2 Expression Level", "setting": "gene #98 of Table 8", "value": 5.99}, {"measurement": "Log2 Expression Level", "setting": "gene #99 of Table 8", "value": 10.05}, {"measurement": "Log2 Expression Level", "setting": "gene #100 of Table 8", "value": 8.07}, {"measurement": "Wilcoxon", "setting": "[1]", "value": "No"}, {"measurement": "Kendall", "setting": "[1]", "value": "Yes"}, {"measurement": "Wilcoxon", "setting": "[2]", "value": "No"}, {"measurement": "Kendall", "setting": "[2]", "value": "Yes"}, {"measurement": "Wilcoxon", "setting": "[3]", "value": "No"}, {"measurement": "Kendall", "setting": "[3]", "value": "Yes"}, {"measurement": "Wilcoxon", "setting": "[4]", "value": "No"}, {"measurement": "Kendall", "setting": "[4]", "value": "Yes"}, {"measurement": "Wilcoxon", "setting": "gene #539 Ccm2 NM_001190343_at", "value": "No"}, {"measurement": "Kendall", "setting": "gene #539 Ccm2 NM_001190343_at", "value": "Yes"}, {"measurement": "Wilcoxon", "setting": "gene #540 Ccm2 NM_001190344_at", "value": "No"}, {"measurement": "Kendall", "setting": "gene #540 Ccm2 NM_001190344_at", "value": "Yes"}, {"measurement": "Wilcoxon", "setting": "[5]", "value": "No"}, {"measurement": "Kendall", "setting": "[5]", "value": "Yes"}, {"measurement": "Wilcoxon", "setting": "[6]", "value": "No"}, {"measurement": "Kendall", "setting": "[6]", "value": "Yes"}, {"measurement": "Wilcoxon", "setting": "[7]", "value": "No"}, {"measurement": "Kendall", "setting": "[7]", "value": "Yes"}, {"measurement": "Wilcoxon", "setting": "[8]", "value": "No"}, {"measurement": "Kendall", "setting": "[8]", "value": "Yes"}, {"measurement": "Wilcoxon", "setting": "[9]", "value": "No"}, {"measurement": "Kendall", "setting": "[9]", "value": "Yes"}, {"measurement": "Wilcoxon", "setting": "gene #546 Cav1 NM_007616_at", "value": "No"}, {"measurement": "Kendall", "setting": "gene #546 Cav1 NM_007616_at", "value": "Yes"}, {"measurement": "Wilcoxon", "setting": "gene #547 Cdkn2c NM_007671_at", "value": "No"}, {"measurement": "Kendall", "setting": "gene #547 Cdkn2c NM_007671_at", "value": "Yes"}, {"measurement": "Wilcoxon", "setting": "gene #548 Chd1 NM_007690_at", "value": "No"}, {"measurement": "Kendall", "setting": "gene #548 Chd1 NM_007690_at", "value": "Yes"}, {"measurement": "Wilcoxon", "setting": "gene #549 Cox8a NM_007750_at", "value": "No"}, {"measurement": "Kendall", "setting": "gene #549 Cox8a NM_007750_at", "value": "Yes"}, {"measurement": "Wilcoxon", "setting": "gene #550 Epc1 NM_007935_at", "value": "No"}, {"measurement": "Kendall", "setting": "gene #550 Epc1 NM_007935_at", "value": "Yes"}, {"measurement": "Wilcoxon", "setting": "gene #551 Mpzl2 NM_007962_at", "value": "No"}, {"measurement": "Kendall", "setting": "gene #551 Mpzl2 NM_007962_at", "value": "Yes"}, {"measurement": "Wilcoxon", "setting": "gene #552 Fnta NM_008033_at", "value": "No"}, {"measurement": "Kendall", "setting": "gene #552 Fnta NM_008033_at", "value": "Yes"}, {"measurement": "Wilcoxon", "setting": "gene #553 Gcdh NM_008097_at", "value": "No"}, {"measurement": "Kendall", "setting": "gene #553 Gcdh NM_008097_at", "value": "Yes"}, {"measurement": "Wilcoxon", "setting": "gene #554 Gcnt2 NM_008105_at", "value": "No"}, {"measurement": "Kendall", "setting": "gene #554 Gcnt2 NM_008105_at", "value": "Yes"}, {"measurement": "Wilcoxon", "setting": "gene #555 Nr3c1 NM_008173_at", "value": "No"}, {"measurement": "Kendall", "setting": "gene #555 Nr3c1 NM_008173_at", "value": "Yes"}, {"measurement": "Wilcoxon", "setting": "gene #556 Hhex NM_008245_at", "value": "No"}, {"measurement": "Kendall", "setting": "gene #556 Hhex NM_008245_at", "value": "Yes"}]}
